In patent publication US6207399A, “Methods of determining endogenous thrombin potential (ETP) and thrombin substrates for use in said methods” (Hemker; Hendrik Coenraad, priority 1995, dated 2001):
Square brackets hold non-standard residues; d marks the D form. Peptide text beside a SMILES is read from it. * marks the point of attachment. pNA = O=[N+]([O-])c1ccc(N*)cc1; Tos = Cc1ccc(S(=O)(=O)*)cc1; Pip = O=C(O)[C@@H]1CCCCN1; Nle = CCCC[C@H](N)C(=O)O; Orn = NCCC[C@H](N)C(=O)O

Experiments:
human α-thrombin = molecular target: T1, human α-thrombin (Homo sapiens, UniProt P00734); assay: Kinetics of hydrolysis of substrates by human α-thrombin in buffer A at 37° C. (Example 2, Table 1); format: biochemical; parameters: key to kcat: NH: not hydrolyzed by thrombin
T1 construct: Pure human α-thrombin; gift of Dr. T. Lindhout (University of Limburg, Maastricht)
Description: (§1) Kinetic parameters: The hydrolysis experiments were run in buffer A at 37° C. The liberation of p-nitroaniline was monitored at 405 nm in a dual wavelength (405-546 nm) spectrophotometer made in our workshop, using a personal computer for data recording. In a polystyrene microcuvette (total volume 500 μL), buffer A and substrate solution were added to obtain a final substrate concentration between 1 to 2000 μM. After 5 min of incubation at 37° C., enzyme solution was added to achieve a final concentration between 0.5 to 100 nM. The measurement was carried out at 37° C. in a thermostated cuvette-holder. The Michaelis constant (Km) and the catalytic constant (kcat) were obtained by measuring initial reaction velocities at different substrate concentrations. The data obtained were fitted by linear regression on the Michaelis-Menten equation.
(§2) Kinetic parameters: In a preliminary experiment, the substrate was hydrolyzed under the following conditions: enzyme concentration: 10 to 20 nM, substrate concentration: 200 μM in buffer A to get an impression of the initial velocity. […] The results are given in table 1 and 2 for thrombin and factor Xa respectively. The Km and kcat for each substrate were determined from the initial velocities measured for at least six substrate concentrations in the concentration range as given. The enzyme concentration used gives a good signal to noise ratio. The data given are obtained from one or two experiments. The data from table 1 and 2 were only used as the first selection criterion to get a rough impression of the hydrolysis behaviour. Notwithstanding the preliminary character of the measurement it was helpful in the design of the substrates of our interest.

factor Xa = molecular target: T2, factor Xa (Homo sapiens, UniProt P00742); assay: Kinetics of hydrolysis of substrates by human factor Xa in buffer A at 37° C. (Example 2, Table 2); format: biochemical; parameters: key to kcat: NH: not hydrolyzed by factor Xa
T2 construct: human factor Xa samples; gift of Dr. T. Lindhout (University of Limburg, Maastricht)
T2 sequence (P00742 41-179 limits assumed): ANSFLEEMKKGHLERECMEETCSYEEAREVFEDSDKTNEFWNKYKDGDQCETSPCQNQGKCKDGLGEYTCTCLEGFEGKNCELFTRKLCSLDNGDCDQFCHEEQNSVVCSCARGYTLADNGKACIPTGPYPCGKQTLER
T2 sequence (P00742 235-488 limits assumed): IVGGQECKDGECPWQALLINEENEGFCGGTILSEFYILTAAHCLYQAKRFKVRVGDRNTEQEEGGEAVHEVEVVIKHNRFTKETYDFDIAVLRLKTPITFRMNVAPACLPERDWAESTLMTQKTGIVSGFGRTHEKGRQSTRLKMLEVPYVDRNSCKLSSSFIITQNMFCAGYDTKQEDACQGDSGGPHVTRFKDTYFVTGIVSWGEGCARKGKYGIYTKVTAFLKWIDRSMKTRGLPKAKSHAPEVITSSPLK
Description: as §1, §2

| Km (human α-thrombin) | kcat (human α-thrombin) | kcat /Km (human α-thrombin) | Km (factor Xa) | kcat (factor Xa) | kcat /Km (factor Xa) | Structure (SMILES) |
| --- | --- | --- | --- | --- | --- | --- |
| 666 µM | 16.5 s⁻¹ | 24800 M/s | 7050 µM | 40.6 s⁻¹ | 5750 M/s | COC(=O)C(C)C(=O)NC(C)C(=O)NC(CCCNC(=N)N)C(=O)Nc1ccc([N+](=O)[O-])cc1.Cl (mixture of isomers) [MMZ-Ala-Arg-pNA.HCl] |
| 2540 µM | 12.3 s⁻¹ | 4850 M/s | 4700 µM | 55.0 s⁻¹ | 11700 M/s | COc1ccc(COC(=O)NCC(=O)N[C@@H](CCCNC(=N)N)C(=O)Nc2ccc([N+](=O)[O-])cc2)cc1.Cl [MZ-Gly-Arg-pNA.HCl] |
| 4250 µM | 0.28 s⁻¹ | 65.9 M/s |  |  |  | CC(C)[C@@H](N)C(=O)N[C@@H](CCCNC(=N)N)C(=O)Nc1ccc([N+](=O)[O-])cc1.Cl.Cl [2HCl.H-D-Val-Arg-pNA] (H-[dV]-Arg-pNA) |
| 1140 µM | 0.074 s⁻¹ | 64.9 M/s |  |  |  | C[C@H](N)C(=O)N[C@@H](CCCNC(=N)N)C(=O)Nc1ccc([N+](=O)[O-])cc1.Cl.Cl [2HCl.H-Ala-Arg-pNA] (H-Ala-Arg-pNA) |
| 5.62 µM | 236.5 s⁻¹ | 4.21e+07 M/s | 174 µM | 7.49 s⁻¹ | 42900 M/s | NC(N)=NCCC[C@H](NC(=O)[C@@H]1CCCCN1C(=O)[C@H](N)Cc1ccccc1)C(=O)Nc1ccc([N+](=O)[O-])cc1 [2HCl.H-D-Phe-Pip-Arg-pNA] |
|  | NH |  | 233 µM | 9.26 s⁻¹ | 39800 M/s | Cc1ccc(S(=O)(=O)NCC(=O)N[C@@H](CCCNC(=N)N)C(=O)Nc2ccc([N+](=O)[O-])cc2)cc1.Cl [pTS-Gly-Arg-pNA.HCl] (Tos-Gly-Arg-pNA) |
| 1310 µM | 0.146 s⁻¹ | 111 M/s | 1820 µM | 0.13 s⁻¹ | 69.5 M/s | COC(=O)CC(=O)N[C@@H](C(=O)N[C@@H](CCCNC(=N)N)C(=O)Nc1ccc([N+](=O)[O-])cc1)C(C)C.Cl [MZ-D-Val-Arg-pNA.HCl] |
| 943 µM | 11.4 s⁻¹ | 12100 M/s |  | NH |  | CCCC[C@H](NC(=O)[C@@H]1CCCCN1C(=O)[C@H](N)Cc1ccccc1)C(=O)Nc1ccc([N+](=O)[O-])cc1.Cl [HCl.H-D-Phe-Pip-Nle-pNA] (H-[dF]-[Pip]-[Nle]-pNA) |
| 2280 µM | 0.107 s⁻¹ | 46.9 M/s |  |  |  | Cl.Cl.NCC(=O)N[C@@H](CCCN=C(N)N)C(=O)Nc1ccc([N+](=O)[O-])cc1 [2HCl.H-Gly-Arg-pNA] (H-Gly-Arg-pNA) |
| 866 µM | 1.73 s⁻¹ | 1990 M/s | 2320 µM | 4.54 s⁻¹ | 1960 M/s | CCC(CC)(C(=O)NCC(=O)N[C@@H](CCCNC(=N)N)C(=O)Nc1ccc([N+](=O)[O-])cc1)C(=O)OC.Cl [DEMZ-Gly-Arg-pNA.HCl] |
| 87.9 µM | 6.66 s⁻¹ | 75400 M/s |  |  |  | CCCC[C@H](NC(=O)[C@@H]1CCCN1C(=O)[C@H](N)Cc1ccccc1)C(=O)Nc1ccc([N+](=O)[O-])cc1.Cl [HCl.H-D-Phe-Pro-Nle-pNA] (H-[dF]-Pro-[Nle]-pNA) |
|  | NH |  | 116 µM | 2.00 s⁻¹ | 17300 M/s | Cl.N=C(N)NCCC[C@H](NC(=O)CNS(=O)(=O)c1ccc2ccccc2c1)C(=O)Nc1ccc([N+](=O)[O-])cc1 [βNS-Gly-Arg-pNA.HCl] |
| 4080 µM | 0.096 s⁻¹ | 23.5 M/s |  |  |  | C[C@@H](N)C(=O)N[C@@H](CCCNC(=N)N)C(=O)Nc1ccc([N+](=O)[O-])cc1.Cl.Cl [2HCl.H-D-Ala-Arg-pNA] (H-[dA]-Arg-pNA) |
| 902 µM | 6.44 s⁻¹ | 7140 M/s | 2840 µM | 13.6 s⁻¹ | 4790 M/s | COC(=O)C(C)(C)C(=O)NCC(=O)N[C@@H](CCCNC(=N)N)C(=O)Nc1ccc([N+](=O)[O-])cc1.Cl [DMMZ-Gly-Arg-pNA.HCl] |
| 474 µM | 0.35 s⁻¹ | 739 M/s |  | NH |  | Cl.N[C@H](Cc1ccccc1)C(=O)N1CCCC[C@H]1C(=O)N[C@@H](CCC(=O)O)C(=O)Nc1ccc([N+](=O)[O-])cc1 [HCl.H-D-Phe-Pip-Glu-pNA] (H-[dF]-[Pip]-Glu-pNA) |
| 1540 µM | 107.5 s⁻¹ | 69900 M/s | 5590 µM | 51.7 s⁻¹ | 9250 M/s | COC(=O)CC(=O)N[C@@H](C)C(=O)N[C@@H](CCCNC(=N)N)C(=O)Nc1ccc([N+](=O)[O-])cc1.Cl [MZ-Ala-Arg-pNA.HCl] |
| 1330 µM | 0.059 s⁻¹ | 44.4 M/s | 3080 µM | 0.088 s⁻¹ | 28.5 M/s | COC(=O)CC(=O)N[C@H](C)C(=O)N[C@@H](CCCNC(=N)N)C(=O)Nc1ccc([N+](=O)[O-])cc1.Cl [MZ-D-Ala-Arg-pNA.HCl] |
| 1740 µM | 6.60 s⁻¹ | 3800 M/s | 6400 µM | 43.9 s⁻¹ | 6860 M/s | COC(=O)C(C)C(=O)NCC(=O)NC(CCCNC(=N)N)C(=O)Nc1ccc([N+](=O)[O-])cc1.Cl (mixture of isomers) [MMZ-Gly-Arg-pNA.HCl] |
| 65.1 µM | 118.3 s⁻¹ | 1.82e+06 M/s | 963 µM | 0.61 s⁻¹ | 631 M/s | Cl.Cl.NCCCC[C@H](NC(=O)[C@@H]1CCCCN1C(=O)[C@H](N)Cc1ccccc1)C(=O)Nc1ccc([N+](=O)[O-])cc1 [2HCl.H-D-Phe-Pip-Lys-pNA] (H-[dF]-[Pip]-Lys-pNA) |
| 565 µM | 4.08 s⁻¹ | 7220 M/s | 2240 µM | 11.04 s⁻¹ | 4930 M/s | COC(=O)C(C)(C)C(=O)N[C@@H](C)C(=O)N[C@@H](CCCNC(=N)N)C(=O)Nc1ccc([N+](=O)[O-])cc1.Cl [DMMZ-Ala-Arg-pNA.HCl] |
| 3.16 µM | 28.4 s⁻¹ | 8.99e+06 M/s | 693 µM | 18.7 s⁻¹ | 26900 M/s | Cl.Cl.N=C(N)NCCC[C@H](NC(=O)[C@@H]1CCCN1C(=O)[C@H](N)Cc1ccccc1)C(=O)Nc1ccc([N+](=O)[O-])cc1 [2HCl.H-D-Phe-Pro-Arg-pNA] |
| 420 µM | 4.64 s⁻¹ | 11100 M/s |  |  |  | Cl.Cl.NCCC[C@H](NC(=O)[C@@H]1CCCCN1C(=O)[C@H](N)Cc1ccccc1)C(=O)Nc1ccc([N+](=O)[O-])cc1 [2HCl.H-D-Phe-Pip-Orn-pNA] (H-[dF]-[Pip]-[Orn]-pNA) |
